The IC50 is the concentration at which inhibition is half-maximal.

For 17 molecules, IC50 results are on record in patent publication US9000174B2, “4-phenylsulfonamidopiperidines as calcium channel blockers” (Purdue Pharma L.P., priority 2004, dated 2015).

Experiment [1] addresses T1, N-type calcium channel (NTCC) (Homo sapiens, UniProt Q00975).
T1 construct: endogenous in cells; host or cells: differentiated IMR32 cells (ATCC)
Kind of experiment: FLIPR calcium mobilization (and/or electrophysiological) assay for N-type calcium channel. It counts as cell-based. As to conditions: calcium mobilization and/or electrophysiological in vitro assay; differentiated IMR32 cells, 90 mM KCl, 5 μM nitrendipine. As to the method:
Unless noted otherwise, cell culture reagents were purchased from Life Technologies of Rockville, Md. IMR32 cells (American Type Culture Collection, ATCC, Manassas, Va.) were routinely cultured in growth medium consisting of minimum essential medium containing 10% fetal bovine serum (FBS, Hyclone, Logan, Utah), 100 U/mL penicillin, 100 μg/mL streptomycin, 2 mM L-glutamine, 1 mM sodium pyruvate, and 1×MEM non-essential amino acids. 80-90% confluent flasks of cells were differentiated using the following differentiation medium: Growth medium plus 1 mM dibutyryl cyclic AMP (Sigma, St. Louis, Mo.), and 2.5 μM bromodeoxyuridine (Sigma). Cells were differentiated for 8 days by replacing differentiation medium every 2-3 days.
One day prior to performing this assay, differentiated IMR32 cells were treated with 1× CellStripper, and seeded on poly-D-lysine-coated 96-well clear-bottom black plates (Becton Dickinson, Franklin Lakes, N.J.) at 200,000 cells/well. On the day of the assay, the cell plates were washed with IMR32 buffer (127 mM NaCl, 1 mM KCl, 2 mM MgCl2, 700 μM NaH2PO4, 5 mM CaCl2, 5 mM NaHCO3, 8 mM HEPES, 10 mM glucose, pH 7.4), then pre-stimulated with KCl and loaded as follows: 0.05 mL of IMR32 buffer, 0.05 mL of each compound tested diluted in IMR32 buffer containing 20 μM nitrendipine (Sigma), and 0.1 mL KCl dissolved in IMR32 buffer, plus Fluo-4 were added (3 μM final concentration, Molecular Probes, Eugene, Oreg.). Final test compound concentrations ranged from about 846 pM to about 17 μM, final nitrendipine concentration was 5 μM, and final KCl concentration was 90 mM. After 1 hour, the cells were washed twice with 0.05 mL of each compound tested in nitrendipine-containing IMR32 buffer (no KCl or Fluo-4), and then replaced with 0.1 mL of each compound tested in nitrendipine-containing IMR32 buffer. Plates were then transferred to a Fluorimetric Imaging Plate Reader (FLIPR^96, Molecular Devices, Inc., Sunnyvale, Calif.) for assay. The FLIPR measured basal Fluo-4 fluorescence for 315 seconds (i.e., 5 minutes and 15 seconds), then added 0.1 mL KCl agonist dissolved in IMR32 buffer and measured fluorescence for another 45 seconds. Final test compound concentrations on the cells after FLIPR read ranged from about 846 pM to about 17 μM, final nitrendipine concentration was 5 μM, and final KCl concentration was 90 mM. Data were collected over the entire time course and analyzed using Excel, Graph Pad Prism (version 3.02, Graph Pad, San Diego, Calif.), or Activity Base (version 5.1, IDBS, Parsippany, N.J.) software.
N-type calcium channel expressing HEK-293 cells were created in two stages. Stage 1 was created as follows. The rat α1b, and β3 cDNA expression constructs (2.5 μg each) were co-transfected into human embryonic kidney (HEK-293) cells by Lipofectamine Plus reagent (Invitrogen), as per manufacturer's instructions. 24 hours later, cells were split in limiting dilution into multiple 96-well plates in selection media containing 20 μg/mL blasticidin and 500 μg/mL geneticin, and incubated for 3 weeks at 37° C., 5% CO2, 95% humidity. Plates containing ≦1 clone per well were cultured until wells positive for single clones were confluent. Individual clones were then arrayed into columns of a destination 96-well plate, and partly split into 6-well plates for culture maintenance. Array plates were washed once with IMR32 buffer and cells loaded for 1 hour with 0.1 mL of IMR32 buffer containing Fluo-4 (3 μM final concentration, Molecular Probes). Then they were washed twice with 0.1 mL of IMR32 buffer, and replaced with 0.1 mL IMR32 buffer. Plates were then transferred to a FLIPR^96 for assay. The FLIPR measured basal Fluo-4 fluorescence for 315 seconds, then added 0.1 mL KCl agonist dissolved in IMR32 buffer and measured fluorescence for another 45 seconds. Final KCl concentration was 90 mM. Data were collected over the entire time course and analyzed using Excel, Graph Pad Prism, or Activity Base software. […]
A general note: Calcium assays in cells follow changes in intracellular calcium, usually with a dye or a luminescent sensor.

For experiment [2], the target named is T2, L-type calcium channel (LTCC) (Rattus norvegicus, UniProt P22002).
T2 construct: differentiated A7r5 cells were trypsinized, then seeded on tissue culture treated 96-well clear-bottom black plates; endogenous in cells; host or cells: differentiated A7r5 cells (ATCC)
T2 sequence (P22002 whole entry): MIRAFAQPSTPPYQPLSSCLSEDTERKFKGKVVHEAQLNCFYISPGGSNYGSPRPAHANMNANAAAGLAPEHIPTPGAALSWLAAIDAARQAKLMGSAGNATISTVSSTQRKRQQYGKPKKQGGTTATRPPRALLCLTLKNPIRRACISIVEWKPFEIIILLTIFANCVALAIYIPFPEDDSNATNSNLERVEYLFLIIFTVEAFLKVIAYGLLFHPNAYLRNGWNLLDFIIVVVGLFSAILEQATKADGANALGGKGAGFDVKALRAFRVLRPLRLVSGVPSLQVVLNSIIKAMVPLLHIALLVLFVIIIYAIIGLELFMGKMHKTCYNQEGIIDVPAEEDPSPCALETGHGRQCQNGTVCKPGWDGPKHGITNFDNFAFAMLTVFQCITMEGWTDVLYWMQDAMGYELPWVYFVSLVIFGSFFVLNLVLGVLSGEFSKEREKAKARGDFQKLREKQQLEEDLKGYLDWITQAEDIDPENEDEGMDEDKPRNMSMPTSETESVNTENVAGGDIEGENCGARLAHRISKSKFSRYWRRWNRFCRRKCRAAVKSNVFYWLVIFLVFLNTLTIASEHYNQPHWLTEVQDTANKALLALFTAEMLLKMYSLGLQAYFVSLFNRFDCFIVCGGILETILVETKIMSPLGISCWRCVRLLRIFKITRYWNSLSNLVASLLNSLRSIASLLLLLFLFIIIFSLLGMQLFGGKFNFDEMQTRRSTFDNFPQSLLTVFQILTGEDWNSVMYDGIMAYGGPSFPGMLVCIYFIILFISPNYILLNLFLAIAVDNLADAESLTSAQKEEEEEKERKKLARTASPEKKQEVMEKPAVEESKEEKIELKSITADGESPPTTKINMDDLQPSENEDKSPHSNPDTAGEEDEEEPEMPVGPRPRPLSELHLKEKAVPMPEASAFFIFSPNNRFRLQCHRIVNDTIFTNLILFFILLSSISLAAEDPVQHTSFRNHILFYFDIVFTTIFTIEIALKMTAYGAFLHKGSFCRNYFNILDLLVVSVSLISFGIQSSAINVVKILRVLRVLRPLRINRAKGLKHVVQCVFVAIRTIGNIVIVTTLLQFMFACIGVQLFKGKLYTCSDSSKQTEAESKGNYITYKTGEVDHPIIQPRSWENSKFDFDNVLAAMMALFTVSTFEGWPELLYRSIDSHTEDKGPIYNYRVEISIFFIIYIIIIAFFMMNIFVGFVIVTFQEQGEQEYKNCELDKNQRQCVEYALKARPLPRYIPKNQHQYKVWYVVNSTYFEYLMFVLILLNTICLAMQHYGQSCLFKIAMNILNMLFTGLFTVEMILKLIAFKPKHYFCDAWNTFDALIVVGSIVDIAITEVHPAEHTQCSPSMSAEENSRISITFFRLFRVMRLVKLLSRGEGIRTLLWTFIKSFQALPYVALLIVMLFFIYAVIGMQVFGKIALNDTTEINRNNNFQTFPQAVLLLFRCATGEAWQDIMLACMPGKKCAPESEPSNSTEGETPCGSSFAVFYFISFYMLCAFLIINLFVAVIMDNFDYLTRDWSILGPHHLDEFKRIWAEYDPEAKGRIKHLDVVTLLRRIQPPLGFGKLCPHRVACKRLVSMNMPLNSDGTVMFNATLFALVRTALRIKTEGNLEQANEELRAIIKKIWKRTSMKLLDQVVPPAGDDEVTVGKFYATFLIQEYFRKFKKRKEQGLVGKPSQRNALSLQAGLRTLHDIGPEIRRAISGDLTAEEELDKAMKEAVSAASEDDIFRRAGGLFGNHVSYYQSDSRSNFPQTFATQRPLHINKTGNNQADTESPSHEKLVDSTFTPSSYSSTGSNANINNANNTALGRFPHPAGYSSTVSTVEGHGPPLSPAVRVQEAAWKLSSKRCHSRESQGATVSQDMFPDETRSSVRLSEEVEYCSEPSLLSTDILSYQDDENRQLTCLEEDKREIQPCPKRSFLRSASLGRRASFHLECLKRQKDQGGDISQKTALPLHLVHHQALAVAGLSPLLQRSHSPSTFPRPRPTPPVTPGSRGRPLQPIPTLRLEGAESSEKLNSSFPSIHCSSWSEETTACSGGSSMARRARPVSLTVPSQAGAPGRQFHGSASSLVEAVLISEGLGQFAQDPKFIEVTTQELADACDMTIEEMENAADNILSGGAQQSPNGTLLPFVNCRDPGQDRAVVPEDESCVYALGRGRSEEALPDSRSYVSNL
T2 sequence (P54290 25-944 partner limits assumed): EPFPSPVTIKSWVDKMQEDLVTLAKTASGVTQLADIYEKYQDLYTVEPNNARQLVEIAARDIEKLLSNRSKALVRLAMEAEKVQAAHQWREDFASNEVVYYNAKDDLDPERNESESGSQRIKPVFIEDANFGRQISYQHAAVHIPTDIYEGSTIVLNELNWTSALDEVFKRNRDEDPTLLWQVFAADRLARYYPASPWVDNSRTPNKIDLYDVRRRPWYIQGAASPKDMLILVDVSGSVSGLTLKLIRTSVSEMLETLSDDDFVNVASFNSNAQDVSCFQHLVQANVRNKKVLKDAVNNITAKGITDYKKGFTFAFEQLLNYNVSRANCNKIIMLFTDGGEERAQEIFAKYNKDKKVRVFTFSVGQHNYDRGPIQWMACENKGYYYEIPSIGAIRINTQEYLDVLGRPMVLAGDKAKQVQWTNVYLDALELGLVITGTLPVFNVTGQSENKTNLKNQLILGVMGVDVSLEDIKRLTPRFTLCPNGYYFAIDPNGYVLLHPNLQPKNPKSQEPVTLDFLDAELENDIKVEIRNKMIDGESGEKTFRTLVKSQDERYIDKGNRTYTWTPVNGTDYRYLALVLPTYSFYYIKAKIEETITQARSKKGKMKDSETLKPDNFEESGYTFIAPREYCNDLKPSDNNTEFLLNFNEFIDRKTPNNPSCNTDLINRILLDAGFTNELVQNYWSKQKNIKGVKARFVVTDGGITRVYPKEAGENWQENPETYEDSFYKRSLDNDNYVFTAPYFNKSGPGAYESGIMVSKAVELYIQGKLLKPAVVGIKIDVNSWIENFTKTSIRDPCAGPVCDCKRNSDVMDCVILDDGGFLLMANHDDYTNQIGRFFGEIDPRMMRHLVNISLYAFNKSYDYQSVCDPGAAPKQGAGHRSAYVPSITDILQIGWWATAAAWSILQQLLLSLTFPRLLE
T2 sequence (P54290 945-1091 partner limits assumed): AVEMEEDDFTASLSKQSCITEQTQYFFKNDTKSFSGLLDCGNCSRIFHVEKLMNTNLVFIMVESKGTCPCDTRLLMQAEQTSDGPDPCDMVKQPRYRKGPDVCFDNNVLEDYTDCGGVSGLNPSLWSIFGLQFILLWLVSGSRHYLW
T2 sequence (P54287 whole entry partner): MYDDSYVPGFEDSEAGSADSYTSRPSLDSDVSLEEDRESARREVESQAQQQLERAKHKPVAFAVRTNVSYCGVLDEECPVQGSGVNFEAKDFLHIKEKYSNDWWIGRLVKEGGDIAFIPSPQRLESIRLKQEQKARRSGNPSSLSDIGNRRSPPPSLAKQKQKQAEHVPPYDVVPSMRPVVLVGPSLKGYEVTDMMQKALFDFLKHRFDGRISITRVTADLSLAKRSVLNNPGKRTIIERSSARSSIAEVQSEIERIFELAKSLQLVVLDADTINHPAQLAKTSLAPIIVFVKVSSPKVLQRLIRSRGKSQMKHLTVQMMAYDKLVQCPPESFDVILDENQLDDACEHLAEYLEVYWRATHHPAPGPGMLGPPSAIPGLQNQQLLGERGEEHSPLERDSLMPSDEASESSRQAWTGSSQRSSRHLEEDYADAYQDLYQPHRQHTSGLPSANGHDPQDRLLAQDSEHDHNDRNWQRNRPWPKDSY
Put plainly: FLIPR calcium mobilization (and/or electrophysiological) assay for L-type calcium channel. Type of experiment: cell-based. The following applies: calcium mobilization and/or electrophysiological in vitro assay; differentiated A7r5 cells, 90 mM KCl. As to the method:
A7r5 (ATCC) cells were maintained and routinely cultured in A7r5 growth medium consisting of Dulbecco's Modified Eagles Medium containing 10% FBS, 100 U/mL penicillin, 100 μg/mL streptomycin, 4 mM L-glutamine, and 0.15% sodium bicarbonate. 80-90% confluent flasks of cells were differentiated using the following differentiation medium: A7r5 Growth Medium plus 1 mM dibutyryl cyclic AMP (Sigma). Cells were differentiated for 8 days by replacing differentiation medium every 2-3 days.
One day prior to performing this assay, differentiated A7r5 cells were trypsinized, then seeded on tissue culture treated 96-well clear-bottom black plates (Becton Dickinson, Franklin Lakes, N.J.) at a dilution of 1:1 from a confluent T150 cm^2 flask. On the day of the assay, the plates were washed with A7r5 wash buffer (127 mM NaCl, 2 mM MgCl2, 700 μM NaH2PO4, 5 mM CaCl2, 5 mM NaHCO3, 8 mM HEPES, 10 mM glucose, pH 7.4), then loaded with 0.1 mL of A7r5 wash buffer containing Fluo-4 (3 μM final concentration, Molecular Probes, Eugene, Oreg.). After 1 hour, the cells were washed with 0.1 mL A7r5 wash buffer and resuspended in 0.05 mL A7r5 assay buffer that was composed of A7r5 wash buffer plus 50 μM valinomycin (Sigma). Plates were then transferred to a FLIPR^96 for assay. The FLIPR measured basal Fluo-4 fluorescence for 15 seconds, then added 0.05 mL of each compound tested diluted in A7r5 assay buffer at final concentrations ranging from about 846 pM to about 17 μM. Fluo-4 fluorescence was then measured for 5 minutes. 0.1 mL KCl agonist dissolved in A7r5 assay buffer was then added to the cells to produce a final concentration of 90 mM KCl, and fluorescence was measured for another 45 seconds. Data were collected over the entire time course and analyzed using Excel, Graph Pad Prism, or Activity Base software.

Structures can show the parent of a compound that is named as a salt.

For the molecule `N[C@@H](C(=O)N1CCC(N(C2CC2)S(=O)(=O)c2cccc(C(F)(F)F)c2)CC1)C1CCCCC1` [(2R) N-[1-(2-Amino-2-cyclohexylethanoyl)piperidin-4-yl]-N-cyclopropyl-3-trifluoromethylbenzenesulfonamide], the IC50 in experiment [1] is 0.44 µM; in experiment [2], more than 20 µM.

Consider `CN[C@@H](CC(C)C)C(=O)N1CCC(N(C(C)C)S(=O)(=O)c2cccc(C(F)(F)F)c2)CC1` [(2S) N-Isopropyl-N-[1-(4-methyl-2-methylaminopentanoyl)-piperidin-4-yl]-3-trifluoromethylbenzenesulfonamide fumarate], for which the IC50 in experiment [1] is 0.87 µM; in experiment [2] it was more than 20 µM.

For the molecule `CN[C@@H](CC(C)C)C(=O)N1CCC(N(C)S(=O)(=O)c2cccc(C(F)(F)F)c2)CC1` [(2S) N-Methyl-N-[1-(4-methyl-2-methylaminopentanoyl)-piperidin-4-yl]-3-trifluoromethylbenzenesulfonamide fumarate], the IC50 in experiment [1] is 0.39 µM; in experiment [2], 5.12 µM.

As to `CC(C)C[C@H](N)C(=O)N1CCC(N(C2CC2)S(=O)(=O)c2ccccc2)CC1` [(2S) N-[1-(2-amino-4-methylpentanoyl)piperidin-4-yl]-N-cyclopropyl-benzenesulfonamide], the results for the half-inhibitory concentration (IC50) in experiment [1] and in experiment [2] were 4.28 µM and 10 to 20 µM, respectively.

As for `CN[C@@H](CC(C)C)C(=O)N1CCC(N(C2CC2)S(=O)(=O)c2cccc(C(F)(F)F)c2)CC1` [(2S) N-cyclopropyl-N-[1-(4-methyl-2-methylamino-pentanoyl)piperidin-4-yl]-3-trifluoromethylbenzenesulfonamide], the IC50 was 0.36 µM in experiment [1] and 10 µM in experiment [2].

For `CN[C@@H](CC(C)C)C(=O)N1CCC(N(CC(C)C)S(=O)(=O)c2cccc(C(F)(F)F)c2)CC1` [(2S) N-i-butyl-N-[1-(4-methyl-2-methylaminopentanoyl)piperidin-4-yl]-3-trifluoromethylbenzenesulfonamide], the IC50 in experiment [1] is 0.95 µM; in experiment [2] it was 9.12 µM.

Turning to `CNC(Cc1ccccc1C)C(=O)N1CCC(N(C2CC2)S(=O)(=O)c2cccc(C(F)(F)F)c2)CC1` (stereo not shown) [N-Cyclopropyl-N-[1-(2-methylamino-3-o-tolylpropionyl)piperidin-4-yl]-3-trifluoromethylbenzenesulfonamide], the IC50 in experiment [1] was 0.39 µM; in experiment [2], 10 to 20 µM.

On to `CCCC(CC(=O)N1CCC(N(C2CC2)S(=O)(=O)c2cccc(C(F)(F)F)c2)CC1)N1CCSCC1` (stereo not shown) [N-Cyclopropyl-N-[1-(3-thiomorpholin-4-yl-hexanoyl)piperidin-4-yl]-3-trifluoromethylbenzenesulfonamide], for which the IC50 is 0.28 µM in experiment [1] and 10 to 20 µM in experiment [2].

Turning to `CCCc1ccc(S(=O)(=O)N2CCC(N(C3CC3)S(=O)(=O)c3cccc(C(F)(F)F)c3)CC2)cc1` [N-Cyclopropyl-N-[1-(4-propylphenylsulfonyl)piperidin-4-yl]-3-trifluoromethylbenzenesulfonamide], the IC50 in experiment [1] was found to be 0.44 µM; in experiment [2], 0.94 µM.

As for `O=S(=O)(c1cccc(C(F)(F)F)c1)N(C1CC1)C1CCN(CCOC(c2ccc(F)cc2)c2ccc(F)cc2)CC1` [N-Cyclopropyl-N-{1-[2-bis(4-fluorophenyl)methoxyethyl]piperidin-4-yl}-3-trifluoromethylbenzenesulfonamide], the results for the IC50 in experiment [1] and in experiment [2] were 0.78 µM and 2.23 µM, respectively.

In the case of `O=S(=O)(c1cccc(C(F)(F)F)c1)N(C1CC1)C1CCN(CCCC(c2ccc(F)cc2)c2ccc(F)cc2)CC1` [N-Cyclopropyl-N-{1-[4,4-bis(4-fluorophenyl)butyl]piperidin-4-yl}-3-trifluoromethylbenzenesulfonamide], the IC50 turned out to be 0.11 µM in experiment [1] and 3.78 µM in experiment [2].

With `COc1ccc(C(=O)N2CCC(N(C3CC3)S(=O)(=O)c3cccc(C(F)(F)F)c3)CC2)cc1C(F)(F)F` [N-Cyclopropyl-N-{1-[(3-trifluoromethyl-4-methoxy)benzoyl]piperidin-4-yl}-3-trifluoromethylbenzenesulfonamide], the values for the IC50 in experiment [1] and in experiment [2] were 0.3 µM and 4.57 µM, respectively.

Consider `O=S(=O)(c1cccc(C(F)(F)F)c1)N(C1CC1)C1CCN(Cc2ccnc3ccccc23)CC1` [N-cyclopropyl-N-[1-(4-quinolinylmethyl)piperidin-4-yl]-3-trifluoromethylbenzenesulfonamide], for which the concentration for half-maximal inhibition (IC50) in experiment [1] amounted to 0.86 µM; in experiment [2] it was 1.7 µM.

With `O=C(CC=C(c1ccc(F)cc1)c1ccc(F)cc1)N1CCC(N(C2CC2)S(=O)(=O)c2ccccc2)CC1` [N-cyclopropyl-N-{1-[4,4-bis(4-fluorophenyl)but-3-enoyl]piperidin-4-yl}benzenesulfonamide], the 50% inhibitory concentration (IC50) in experiment [1] was determined as 1.24 µM; in experiment [2] it was 2.59 µM.

As for `O=C(CCC(c1ccc(F)cc1)c1ccc(F)cc1)N1CCC(N(C2CC2)S(=O)(=O)c2cccc(F)c2)CC1` [N-cyclopropyl-N-{1-[4,4-bis(4-fluorophenyl)butanoyl]piperidin-4-yl}-3-fluorobenzenesulfonamide], the IC50 in experiment [1] was 0.97 µM; in experiment [2], 1.43 µM.

For `O=C(CCC(c1ccc(F)cc1)c1ccc(F)cc1)N1CCC(N(C2CC2)S(=O)(=O)c2ccccc2)CC1` [N-cyclopropyl-N-{1-[4,4-bis(4-fluorophenyl)butanoyl]piperidin-4-yl}benzenesulfonamide], the 50% inhibitory concentration (IC50) was determined as 1.09 µM in experiment [1] and 3.24 µM in experiment [2].

As for `NC(Cc1ccc(F)cc1)C(=O)N1CCC(N(C2CC2)S(=O)(=O)c2cccc(C(F)(F)F)c2)CC1` (stereo not shown) [N-{1-[2-Amino-3-(4-fluorophenyl)propionyl]piperidin-4-yl}-N-cyclopropyl-3-trifluoromethylbenzenesulfonamide], the values for the 50% inhibitory concentration (IC50) in experiment [1] and in experiment [2] were 0.18 µM and 8.6 µM, respectively.
